Results from patent US20090017047A1, “Preparation for the Prevention and Treatment of Stress Conditions as Well as Functional and Organic Disorders of the Nervous System and Metabolic Disorders” (priority 2004, published 2009).
Read-outs that look alike come from different tables or passages of the source.

What was measured:
[1] = tested on: NMDA receptors (N-methyl-D-aspartate receptors); details: opening of the ion channel induced by glutamate
[2] = very low application dosage
[3] = Pharmacological effect and tolerability of glycine on administration; details: in vivo

For NCC(=O)O [Glycine], the “effect on the excitatory NMDA receptors” value [1] was “shows an effect as a co-transmitter”, the “uptake into the central nervous system” value ([2]; application via the mucous membranes, avoiding the first-pass effect) was “very fast uptake” and the “uptake into the central nervous system” value [2] was “very quick uptake”. The “negative effects with other applications of drugs” value [3] was “No negative effects”, the “time until the preparation acts” value [3] was 5 to 10 min and the undesired side-effects [3] was “have not been proven”. The undesired side-effects ([3]; listed as glycine) was “No undesired side-effects have been established”.
